This is an account of results in patent US9707233B2, “Heterocyclylamines as PI3K inhibitors” (Incyte Corporation, priority 2011, dated 2017).

pIC50: −log10 of the molar value.

The target in the test is PI3Kδ (p110δ/p85α) (Homo sapiens (Human), UniProt O00329). In words: PI3Kδ scintillation proximity assay (Example A3). The test is classed as biochemical. The conditions noted are these: 20 μM ATP, 20 μM PIP2, 4 nM PI3Kδ; read-out: PI3Kδ SPA IC50. Summed up: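 IC50 derived by fitting percent control activity against log inhibitor concentration. Radiolabelled product was measured by scintillation counting on WGA SPA beads after overnight shaking. The kinase reaction used 4 nM p110δ/p85α, 20 μM ATP (with [γ-33P]ATP) and 20 μM PIP2 at pH 6.7 and room temperature, with 0.5% DMSO final.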
Chain of PI3Kδ (p110δ/p85α) (O00329 whole entry): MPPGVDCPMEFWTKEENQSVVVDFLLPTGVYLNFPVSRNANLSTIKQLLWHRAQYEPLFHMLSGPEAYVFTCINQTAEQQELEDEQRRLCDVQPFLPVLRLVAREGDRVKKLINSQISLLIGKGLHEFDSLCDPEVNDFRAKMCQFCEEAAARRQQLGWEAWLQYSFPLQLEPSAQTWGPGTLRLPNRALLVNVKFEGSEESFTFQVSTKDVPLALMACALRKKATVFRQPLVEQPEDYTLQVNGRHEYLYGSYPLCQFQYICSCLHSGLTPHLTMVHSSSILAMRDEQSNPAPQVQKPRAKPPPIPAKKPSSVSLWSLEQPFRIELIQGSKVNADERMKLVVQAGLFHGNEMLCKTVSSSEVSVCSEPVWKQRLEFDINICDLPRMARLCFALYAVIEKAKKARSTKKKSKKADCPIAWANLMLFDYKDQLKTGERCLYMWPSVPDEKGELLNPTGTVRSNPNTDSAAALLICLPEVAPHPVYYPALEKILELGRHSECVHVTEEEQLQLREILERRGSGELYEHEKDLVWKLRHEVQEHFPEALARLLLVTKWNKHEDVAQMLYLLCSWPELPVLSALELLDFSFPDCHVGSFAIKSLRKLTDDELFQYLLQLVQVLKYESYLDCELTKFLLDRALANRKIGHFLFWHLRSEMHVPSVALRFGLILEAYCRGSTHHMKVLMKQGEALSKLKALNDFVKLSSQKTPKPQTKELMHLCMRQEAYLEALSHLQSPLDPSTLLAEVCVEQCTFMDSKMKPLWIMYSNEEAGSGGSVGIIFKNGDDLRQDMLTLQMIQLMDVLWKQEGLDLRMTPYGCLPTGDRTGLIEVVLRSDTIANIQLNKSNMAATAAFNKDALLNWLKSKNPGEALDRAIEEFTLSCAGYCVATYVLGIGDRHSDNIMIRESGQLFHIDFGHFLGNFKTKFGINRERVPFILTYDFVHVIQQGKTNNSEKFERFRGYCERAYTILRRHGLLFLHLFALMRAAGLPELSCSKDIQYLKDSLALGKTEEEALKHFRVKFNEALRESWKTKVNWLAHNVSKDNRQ
Chain of PI3Kδ (p110δ/p85α) (P27986 whole entry partner): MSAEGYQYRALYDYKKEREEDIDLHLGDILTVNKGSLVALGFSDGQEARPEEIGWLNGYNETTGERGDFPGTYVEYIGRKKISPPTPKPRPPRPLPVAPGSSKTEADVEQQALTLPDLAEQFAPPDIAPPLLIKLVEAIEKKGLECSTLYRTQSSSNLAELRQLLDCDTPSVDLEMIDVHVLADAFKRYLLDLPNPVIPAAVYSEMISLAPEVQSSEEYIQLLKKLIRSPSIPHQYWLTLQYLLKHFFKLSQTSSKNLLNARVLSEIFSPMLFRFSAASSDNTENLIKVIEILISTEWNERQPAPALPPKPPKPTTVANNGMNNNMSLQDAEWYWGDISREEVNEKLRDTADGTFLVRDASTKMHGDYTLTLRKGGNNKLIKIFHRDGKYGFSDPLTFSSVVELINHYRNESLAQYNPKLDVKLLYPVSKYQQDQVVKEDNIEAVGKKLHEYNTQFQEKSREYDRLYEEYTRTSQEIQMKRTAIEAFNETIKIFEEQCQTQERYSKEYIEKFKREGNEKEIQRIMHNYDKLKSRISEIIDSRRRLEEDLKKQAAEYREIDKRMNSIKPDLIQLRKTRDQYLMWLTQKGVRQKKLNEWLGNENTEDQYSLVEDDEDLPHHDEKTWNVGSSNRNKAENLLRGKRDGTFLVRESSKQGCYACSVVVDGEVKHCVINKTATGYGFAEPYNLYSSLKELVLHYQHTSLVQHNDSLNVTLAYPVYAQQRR
For orientation: SPA uses beads or plates that emit light when radiolabelled molecules are held near them.
For orientation: pIC50 means the negative decadic logarithm of the IC50, by convention in mol/L. `COc1c(C(C)n2nc(C)c3c(N)ncnc32)cc(Cl)c(C)c1-c1cnc(N)nc1` (single isomer, unassigned) [Example 169, 1-(1-(3-(2-aminopyrimidin-5-yl)-5-chloro-2-methoxy-4-methylphenyl)ethyl)-3-methyl-1H-pyrazolo[3,4-d]pyrimidin-4-amine]: the pIC50 was not below 8.00.

Regarding `COc1c(C(C)n2nc(C)c3c(N)ncnc32)cc(Cl)c(C)c1-c1cncc(C#N)c1` (single isomer, unassigned) [Example 170, 5-(3-(1-(4-amino-3-methyl-1H-pyrazolo[3,4-d]pyrimidin-1-yl)ethyl)-5-chloro-2-methoxy-6-methylphenyl)nicotinonitrile], the pIC50 is not below 8.00.

As for `COc1c(C(C)n2nc(C)c3c(N)ncnc32)cc(Cl)c(C)c1-c1ccc(N)nc1` (single isomer, unassigned) [Example 171, 1-(1-(3-(6-aminopyridin-3-yl)-5-chloro-2-methoxy-4-methylphenyl)ethyl)-3-methyl-1H-pyrazolo[3,4-d]pyrimidin-4-amine], the pIC50 was not below 8.00.

On to `COc1c(C(C)n2nc(C)c3c(N)ncnc32)cc(Cl)c(C)c1-c1cncc(S(C)(=O)=O)c1` (single isomer, unassigned) [Example 172, 1-(1-(5-chloro-2-methoxy-4-methyl-3-(5-(methylsulfonyl)pyridin-3-yl)phenyl)ethyl)-3-methyl-1H-pyrazolo[3,4-d]pyrimidin-4-amine], for which the pIC50 is not below 8.00.

Take `CNC(=O)c1ccc(-c2c(C)c(Cl)cc(C(C)n3nc(C)c4c(N)ncnc43)c2OC)cn1` (single isomer, unassigned) [Example 173, 5-(3-(1-(4-amino-3-methyl-1H-pyrazolo[3,4-d]pyrimidin-1-yl)ethyl)-5-chloro-2-methoxy-6-methylphenyl)-N-methylpicolinamide]: the pIC50 was not below 8.00.

As for `COc1c(C(C)n2nc(C)c3c(N)ncnc32)cc(Cl)c(C)c1-c1cncc(C(=O)N(C)CCO)c1` (single isomer, unassigned) [Example 175, 5-{3-[1-(4-amino-3-methyl-1H-pyrazolo[3,4-d]pyrimidin-1-yl)ethyl]-5-chloro-2-methoxy-6-methylphenyl}-N-(2-hydroxyethyl)-N-methylnicotinamide], the pIC50 is not below 8.00.

Consider `COc1c(C(C)n2nc(C)c3c(N)ncnc32)cc(Cl)c(C)c1-c1cncc(C(=O)N2CCC(O)CC2)c1` (single isomer, unassigned) [Example 176, 1-[(5-{3-[1-(4-amino-3-methyl-1H-pyrazolo[3,4-d]pyrimidin-1-yl)ethyl]-5-chloro-2-methoxy-6-methylphenyl}pyridin-3-yl)carbonyl]piperidin-4-ol], for which the pIC50 was not below 8.00.

For `COc1c(C(C)n2nc(C)c3c(N)ncnc32)cc(Cl)c(C)c1-c1cncc(C(=O)N(C)CCN)c1` (single isomer, unassigned) [Example 178, 5-(3-(1-(4-amino-3-methyl-1H-pyrazolo[3,4-d]pyrimidin-1-yl)ethyl)-5-chloro-2-methoxy-6-methylphenyl)-N-(2-aminoethyl)-N-methylnicotinamide], the pIC50 is not below 8.00.

Turning to `COc1c(C(C)n2nc(C)c3c(N)ncnc32)cc(Cl)c(C)c1CCC(=O)N(C)C` (single isomer, unassigned) [Example 180, 3-(3-(1-(4-Amino-3-methyl-1H-pyrazolo[3,4-d]pyrimidin-1-yl)ethyl)-5-chloro-2-methoxy-6-methylphenyl)-N,N-dimethylpropanamide], the pIC50 was not below 8.00.

`COc1c(C(C)n2nc(C)c3c(N)ncnc32)cc(Cl)c(C)c1-c1ccc(N(C)C)nc1` (single isomer, unassigned) [Example 185, 1-(1-(5-chloro-3-(6-(dimethylamino)pyridin-3-yl)-2-methoxy-4-methylphenyl)ethyl)-3-methyl-1H-pyrazolo[3,4-d]pyrimidin-4-amine]: the pIC50 is not below 8.00.

In the case of `COc1c(C(C)n2nc(C)c3c(N)ncnc32)cc(Cl)c(C)c1-c1ccnc(N(C)C)c1` (single isomer, unassigned) [Example 186, 1-(1-(5-chloro-3-(2-(dimethylamino)pyridin-4-yl)-2-methoxy-4-methylphenyl)ethyl)-3-methyl-1H-pyrazolo[3,4-d]pyrimidin-4-amine], the pIC50 is not below 8.00.

`COc1c(C(C)n2nc(C)c3c(N)ncnc32)cc(Cl)c(C)c1-c1ccnc(N2CC(O)C2)c1` (single isomer, unassigned) [Example 187, 1-(4-(3-(1-(4-amino-3-methyl-1H-pyrazolo[3,4-d]pyrimidin-1-yl)ethyl)-5-chloro-2-methoxy-6-methylphenyl)pyridin-2-yl)azetidin-3-ol]: the pIC50 was not below 8.00.

Consider `COc1c(C(C)n2nc(C)c3c(N)ncnc32)cc(Cl)c(C)c1C1CC1` (single isomer, unassigned) [Example 192, 1-[1-(5-Chloro-3-cyclopropyl-2-methoxy-4-methylphenyl)ethyl]-3-methyl-1H-pyrazolo[3,4-d]pyrimidin-4-amine], for which the pIC50 is 7.30 to 8.00.

Turning to `COc1c(C(C)n2nc(C)c3c(N)ncnc32)cc(Cl)c(C)c1CC1CC1` (single isomer, unassigned) [Example 193, 1-{1-[5-Chloro-3-(cyclopropylmethyl)-2-methoxy-4-methylphenyl]ethyl}-3-methyl-1H-pyrazolo[3,4-d]pyrimidin-4-amine], the pIC50 is 6.70 to 7.30.

For the compound `CCOc1c(C(C)n2nc(C)c3c(N)ncnc32)cc(Cl)c(C)c1-c1ccc(C(=O)NC)nc1` (single isomer, unassigned) [Example 199, 5-(3-(1-(4-amino-3-methyl-1H-pyrazolo[3,4-d]pyrimidin-1-yl)ethyl)-5-chloro-2-ethoxy-6-methylphenyl)-N-methylpicolinamide], the pIC50 was not below 8.00.

Consider `CCOc1c(C(C)n2nc(C)c3c(N)ncnc32)cc(Cl)c(C)c1-c1ccnc(C(=O)N(C)CCO)c1` (single isomer, unassigned) [Example 202, 4-(3-(1-(4-amino-3-methyl-1H-pyrazolo[3,4-d]pyrimidin-1-yl)ethyl)-5-chloro-2-ethoxy-6-methylphenyl)-N-(2-hydroxyethyl)-N-methylpicolinamide], for which the pIC50 is not below 8.00.

For the compound `CCOc1c(C(C)n2nc(C)c3c(N)ncnc32)cc(Cl)c(C)c1-c1cnn(CC(=O)NC)c1` (single isomer, unassigned) [Example 204, 2-(4-(3-(1-(4-amino-3-methyl-1H-pyrazolo[3,4-d]pyrimidin-1-yl)ethyl)-5-chloro-2-ethoxy-6-methylphenyl)-1H-pyrazol-1-yl)-N-methylacetamide], the pIC50 was not below 8.00.

On to `CCOc1c(C(C)n2nc(C)c3c(N)ncnc32)cc(Cl)c(C)c1-c1cnn(CC(=O)N(C)C)c1` (single isomer, unassigned) [Example 205, 2-(4-(3-(1-(4-amino-3-methyl-1H-pyrazolo[3,4-d]pyrimidin-1-yl)ethyl)-5-chloro-2-ethoxy-6-methylphenyl)-1H-pyrazol-1-yl)-N,N-dimethylacetamide], for which the pIC50 was not below 8.00.

Regarding `COc1c(C(C)n2nc(C)c3c(N)ncnc32)cc(Cl)c(C)c1-c1cnn(CC(=O)N(C)C)c1` (single isomer, unassigned) [Example 206, 2-(4-(3-(1-(4-amino-3-methyl-1H-pyrazolo[3,4-d]pyrimidin-1-yl)ethyl)-5-chloro-2-methoxy-6-methylphenyl)-1H-pyrazol-1-yl)-N,N-dimethylacetamide], the negative-log IC50 (pIC50) is not below 8.00.

As for `COc1c(C(C)n2nc(C)c3c(N)ncnc32)cc(C#N)c(C)c1-c1cnn(C)c1` (single isomer, unassigned) [Example 209, 5-[1-(4-Amino-3-methyl-1H-pyrazolo[3,4-d]pyrimidin-1-yl)ethyl]-4-methoxy-2-methyl-3-(1-methyl-1H-pyrazol-4-yl)benzonitrile], the pIC50 was 7.30 to 8.00.

With `CCOc1c(C(C)n2nc(C)c3c(N)ncnc32)cc(C#N)c(C)c1-c1cnn(C)c1` (single isomer, unassigned) [Example 210, 5-[1-(4-Amino-3-methyl-1H-pyrazolo[3,4-d]pyrimidin-1-yl)ethyl]-4-ethoxy-2-methyl-3-(1-methyl-1H-pyrazol-4-yl)benzonitrile], the pIC50 was not below 8.00.

As for `CCOc1c(C(C)n2nc(C)c3c(N)ncnc32)cc(Cl)c(C#N)c1C1CN(CC(C)C)C1` (single isomer, unassigned) [Example 216, 4-[1-(4-Amino-3-methyl-1H-pyrazolo[3,4-d]pyrimidin-1-yl)ethyl]-6-chloro-3-ethoxy-2-(1-isobutylazetidin-3-yl)benzonitrile], the pIC50 was not below 8.00.

`CCOc1c(C(C)n2nc(C)c3c(N)ncnc32)cc(Cl)c(C#N)c1C1CN(C2CCC2)C1` (single isomer, unassigned) [Example 218, 4-[1-(4-Amino-3-methyl-1H-pyrazolo[3,4-d]pyrimidin-1-yl)ethyl]-6-chloro-2-(1-cyclobutylazetidin-3-yl)-3-ethoxybenzonitrile]: the pIC50 was not below 8.00.

Consider `CCOc1c(C(C)n2nc(C)c3c(N)ncnc32)cc(Cl)c(C#N)c1C1CN(CCO)C1` (single isomer, unassigned) [Example 219, 4-[1-(4-Amino-3-methyl-1H-pyrazolo[3,4-d]pyrimidin-1-yl)ethyl]-6-chloro-3-ethoxy-2-[1-(2-hydroxyethyl)azetidin-3-yl]benzonitrile], for which the pIC50 is not below 8.00.

`CCOc1c(C(C)n2nc(C)c3c(N)ncnc32)cc(Cl)c(C#N)c1C1CN(C(COC)COC)C1` (single isomer, unassigned) [Example 226, 4-[1-(4-Amino-3-methyl-1H-pyrazolo[3,4-d]pyrimidin-1-yl)ethyl]-6-chloro-3-ethoxy-2-{1-[2-methoxy-1-(methoxymethyl)ethyl]azetidin-3-yl}benzonitrile]: the pIC50 was not below 8.00.
